We go through 2 compounds from publication PMC4818977 (ChemMedChem, 2016).

Where two headings read alike, the source gives them in different places.

In one series the target is FimH (Escherichia coli, UniProt Q1R2J4). It is filed as cell-based, uropathogenic E. coli (UPEC) strain UTI89. The settings on record: for HAI: hemagglutination inhibition titer (EC>90, Figure 5 legend).
A further series has as its system UPEC biofilm formation. The series can be described thus: biofilm prevention assay. It is filed as cell-based, uropathogenic E. coli (UPEC) strain UTI89. Particulars: read-out: Biofilm IC50.
For a further series, the target named is FimH lectin domain (Escherichia coli, UniProt P08191). Set-up: species or system uropathogenic E. coli (UPEC). Particulars: melting temperature of FimH lectin domain, relative binding strength.
Sequence of FimH lectin domain (P08191 22-179): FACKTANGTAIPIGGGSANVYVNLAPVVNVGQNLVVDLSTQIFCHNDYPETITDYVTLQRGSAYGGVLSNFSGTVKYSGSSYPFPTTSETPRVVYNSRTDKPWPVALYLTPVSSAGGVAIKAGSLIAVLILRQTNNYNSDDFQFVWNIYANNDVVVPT
Series [1] is described as follows: i.v./p.o. crossover PK study in rat. The format is in vivo.
Series [2] is described as follows: in vivo mouse PK, urine mannoside concentration. The settings on record: mice, 50 mgkg^−1 oral gavage, 10% cyclodextrin, 1 h post-dosing.
The subject of series [3] is UTI89 chronically infected mice. The series can be described thus: murine model of chronic UTI. The format is in vivo. The settings on record: 50 mgkg^−1 p.o., 10% cyclodextrin, 6 h post-dosing.

The IC50 is the concentration needed to halve the response being measured. As for `COC(=O)c1cccc(-c2ccc(O[C@H]3O[C@H](CO)[C@@H](O)[C@H](O)[C@@H]3O)cc2)c1` [Compound 2], the HAI at FimH came to 1.0 µM. In addition, in the series with UPEC biofilm formation (biofilm prevention), the IC50 was 940 nM. For the same compound, the “DSF Tm” value at FimH lectin domain came to 73.4 °C.

In general, half-life refers to the time needed for the level to fall by half in the phase considered. A lower half-life goes with rapid decline. With `Cc1cc(-c2ccc3cc[nH]c(=O)c3c2)ccc1O[C@H]1O[C@H](CO)[C@@H](O)[C@H](O)[C@@H]1O` [Compound 22, 2-methyl-4-(1-oxo-1,2-dihydroisoquinolin-7-yl)phenyl α-D-mannopyranoside], the HAI at FimH amounted to 0.031 µM. For the same compound, the “increase in activity in HA assay relative to 16 and 17, respectively” value on FimH (ortho-methyl matched pairs) is on record as “fourfold”. The IC50 in the series on UPEC biofilm formation (Escherichia coli) came out at 130 nM. Further, at FimH lectin domain, the “DSF Tm” value turned out to be 75.5 °C. In series [1] (10 mgkg^−1 oral (p.o.) dose, 10% cyclodextrin formulation), the “Rat F” value turned out to be 7.0%. In addition, in series [1] (calculated from a 10 mgkg^−1 oral (p.o.) dose, 10% cyclodextrin formulation), the “Rat CL” value is given as 408 mLmin^−1kg^−1. Besides, in series [1] (rat, in vivo, po, 10 mgkg^−1), the half-life is less than 3 h. Moreover, in series [2], the initial urine concentration entry was “elevated relative to 5”. Moreover, the “additional drop in CFUs per bladder relative to 5, 7 (and 17b)” value in series [3] is on record as 10 fold.
